From patent US10131652B2, “Pyrimidinyloxy benzene derivatives as herbicides” (E. I. DU PONT DE NEMOURS AND COMPANY, priority 2014, dated 2018)

Legend:
Experiment in all cases: Test F pre-/postemergence plant response
Type in all cases: in vivo
Details in all cases: scale 0 to 100
[1] = tested on: field bindweed (Convolvulus arvensis)
Method in brief: (§1)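 Plant response is a visual score from 0, meaning no effect, to 100, meaning complete control, assigned by comparison with untreated plants. Ratings were made 14 to 21 days after preemergence application to seeded silt loam or postemergence application to plants at the 1- to 4-leaf stage.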

[2] = tested on: corn (Zea mays)
Method in brief: as §1

[3] = tested on: arrowleaf sida (Sida rhombifolia)
Method in brief: as §1

[4] = tested on: fall panicum (Panicum dichotomiflorum)
Method in brief: as §1

[5] = tested on: palmer pigweed (Amaranthus palmeri)
Method in brief: as §1

[6] = tested on: soybean (Glycine max)
Method in brief: as §1

[7] = tested on: kochia (Kochia scoparia)
Method in brief: as §1

SMILES | Plant response rating, Field Bindweed ([1]; 16 g ai/ha Postemergence) | Plant response rating, Field Bindweed ([1]; 31 g ai/ha Postemergence) | Plant response rating, Field Bindweed ([1]; 125 g ai/ha Postemergence) | Plant response rating, Corn ([2]; 16 g ai/ha Postemergence) | Plant response rating, Corn ([2]; 31 g ai/ha Postemergence) | Plant response rating, Corn ([2]; 62 g ai/ha Postemergence) | Plant response rating, Corn ([2]; 125 g ai/ha Postemergence) | Plant response rating, Arrowleaf Sida ([3]; 16 g ai/ha Postemergence) | Plant response rating, Arrowleaf Sida ([3]; 31 g ai/ha Postemergence) | Plant response rating, Arrowleaf Sida ([3]; 62 g ai/ha Postemergence) | Plant response rating, Arrowleaf Sida ([3]; 125 g ai/ha Postemergence) | Plant response rating, Panicum, Fall ([4]; 16 g ai/ha Postemergence) | Plant response rating, Panicum, Fall ([4]; 31 g ai/ha Postemergence) | Plant response rating, Panicum, Fall ([4]; 62 g ai/ha Postemergence) | Plant response rating, Panicum, Fall ([4]; 125 g ai/ha Postemergence) | Plant response rating, Pigweed, Palmer ([5]; 16 g ai/ha Postemergence) | Plant response rating, Pigweed, Palmer ([5]; 31 g ai/ha Postemergence) | Plant response rating, Pigweed, Palmer ([5]; 62 g ai/ha Postemergence) | Plant response rating, Pigweed, Palmer ([5]; 125 g ai/ha Postemergence) | Plant response rating, Soybean ([6]; 16 g ai/ha Postemergence) | also measured
FC(F)c1cc(-c2ccccc2Oc2ncc(Br)cn2)on1 [Compound 212] | 30 | 40 | 70 | 0 | 0 | 0 | 0 | 75 | 70 | 85 | 100 | 0 | 0 | 10 | 10 | 30 | 75 | 100 | 98 | 50 | Plant response rating, Field Bindweed ([1]; 62 g ai/ha Postemergence): 60; Plant response rating, Soybean ([6]; 31 g ai/ha Postemergence): 50; Plant response rating, Soybean ([6]; 62 g ai/ha Postemergence): 75; Plant response rating, Soybean ([6]; 125 g ai/ha Postemergence): 95; Plant response rating, Kochia ([7]; 16 g ai/ha Postemergence): 50; Plant response rating, Kochia ([7]; 31 g ai/ha Postemergence): 90; Plant response rating, Kochia ([7]; 62 g ai/ha Postemergence): 100; Plant response rating, Kochia ([7]; 125 g ai/ha Postemergence): 100
Fc1ccc(Oc2ncc(Cl)cn2)c(-c2cc(C(F)(Cl)Cl)on2)c1 [Compound 221] | 70 | 75 | 80 | 5 | 10 | 10 | 20 | 80 | 90 | 98 | 98 | 10 | 15 | 40 | 60 | 85 | 90 | 100 | 100 | 60 | Plant response rating, Soybean ([6]; 31 g ai/ha Postemergence): 95; Plant response rating, Soybean ([6]; 62 g ai/ha Postemergence): 98; Plant response rating, Soybean ([6]; 125 g ai/ha Postemergence): 95; Plant response rating, Kochia ([7]; 16 g ai/ha Postemergence): 95; Plant response rating, Kochia ([7]; 31 g ai/ha Postemergence): 98; Plant response rating, Kochia ([7]; 62 g ai/ha Postemergence): 100; Plant response rating, Kochia ([7]; 125 g ai/ha Postemergence): 100
